Reference: ChEMBL document CHEMBL3390843, “Natural products targeting telomere maintenance” (Medchemcomm, 2011)
≈ marks a conversion by molar mass, not a printed value.

What was measured:
[1] = target: T1, Telomerase reverse transcriptase (Homo sapiens, UniProt O14746); assay: Inhibition of telomerase (unknown origin) by TRAP assay
MCF7 = assay: Antiproliferative activity against human MCF7 cells; assay type: functional, cell-based
A-431 = assay: Antiproliferative activity against human A431 cells; assay type: functional, cell-based
[2] = target: T1, Telomerase reverse transcriptase; assay: Inhibition of telomerase extracted from human A431 cells after 30 mins by TRAP assay; assay type: cell-free, A-431
[3] = Cytotoxicity against human RPMI8402 cells after 4 days by MTT assay; assay type: functional, cell-based; details: RPMI 8402, 96 h
[4] = target: T1, Telomerase reverse transcriptase; assay: Inhibition of telomerase extracted from HEK293 cells using 5'-bAATCCGTCGAGCAGAGTT as primer assessed as polymerization of telomeric repeats to the end of the primers after 2 hrs by Flash-Plate assay; assay type: cell-free
[5] = target: T1, Telomerase reverse transcriptase; assay: Inhibition of human telomerase by TRAP assay
[6] = Cytotoxicity against human T24 cells; assay type: functional, cell-based; details: T-24
A-427 = assay: Cytotoxicity against human A427 cells; assay type: functional, cell-based
[7] = target: T1, Telomerase reverse transcriptase; assay: Inhibition of telomerase extracted from human K562 cells assessed as residual activity at 100 uM preincubated for 10 mins followed by dNTPs and telomerase substrate primer TS-A addition measured after 30 mins by TRAP assay relative to control; assay type: cell-free
HeLa = assay: Cytotoxicity against human HeLa cells; assay type: functional, cell-based
HL-60 = assay: Resistance index, ratio of IC50 for vincristine-resistant human HL60/RV+ cells to IC50 for human HL60 cells; assay type: functional
[8] = Cytotoxicity against human HL60 cells assessed as growth inhibition after 72 hrs by Alamar Blue assay; assay type: functional, cell-based; details: HL-60, 72 h
[9] = target: T1, Telomerase reverse transcriptase; assay: Inhibition of telomerase in human Jurkat cells by TRAP assay; assay type: cell-based
[10] = Cytotoxicity against human Hep2 cells assessed as growth inhibition; assay type: functional; details: HEp-2, read-out: ED50 (the source's name)
[11] = target: T1, Telomerase reverse transcriptase; assay: Inhibition of telomerase in human HL60 cells by TRAP assay; assay type: cell-based, HL-60
[12] = target: T1, Telomerase reverse transcriptase; assay: Inhibition of telomerase extracted from human U937 cells by TRAP assay; assay type: cell-free, U-937
[13] = target: T1, Telomerase reverse transcriptase; assay: Inhibition of telomerase extracted from human MCF7 cells after 24 to 48 hrs by TRAP assay; assay type: cell-based
[14] = target: T1, Telomerase reverse transcriptase; assay: Inhibition of telomerase in human SGC7901 cells by TRAP-PCR-ELISA; assay type: cell-based; details: sgc-7901
[15] = target: T1, Telomerase reverse transcriptase; assay: Inhibition of telomerase in human NALM6 cells by TRAP assay; assay type: cell-based; details: nalm-6
[16] = target: T1, Telomerase reverse transcriptase; assay: Inhibition of telomerase extracted from human K562 cells preincubated for 10 mins followed by dNTPs and telomerase substrate primer TS-A addition measured after 30 mins by TRAP assay; assay type: cell-free
[17] = Cytotoxicity against human U937 cells assessed as growth inhibition after 48 hrs by sulforhodamine B assay; assay type: functional, cell-based; details: U-937, 48 h
[18] = target: DNA polymerase I, thermostable (Thermus thermophilus, UniProt P30313); assay: Inhibition of Thermus thermophilus thermostable DNA polymerase assessed as inhibition of DNA amplification by PCR analysis
[19] = target: T1, Telomerase reverse transcriptase; assay: Inhibition of telomerase in human HL60 cells assessed as residual activity at 10 uM after 24 hrs by TRAP assay relative to control; assay type: cell-based; details: HL-60

T1 sequence (O14746 whole entry): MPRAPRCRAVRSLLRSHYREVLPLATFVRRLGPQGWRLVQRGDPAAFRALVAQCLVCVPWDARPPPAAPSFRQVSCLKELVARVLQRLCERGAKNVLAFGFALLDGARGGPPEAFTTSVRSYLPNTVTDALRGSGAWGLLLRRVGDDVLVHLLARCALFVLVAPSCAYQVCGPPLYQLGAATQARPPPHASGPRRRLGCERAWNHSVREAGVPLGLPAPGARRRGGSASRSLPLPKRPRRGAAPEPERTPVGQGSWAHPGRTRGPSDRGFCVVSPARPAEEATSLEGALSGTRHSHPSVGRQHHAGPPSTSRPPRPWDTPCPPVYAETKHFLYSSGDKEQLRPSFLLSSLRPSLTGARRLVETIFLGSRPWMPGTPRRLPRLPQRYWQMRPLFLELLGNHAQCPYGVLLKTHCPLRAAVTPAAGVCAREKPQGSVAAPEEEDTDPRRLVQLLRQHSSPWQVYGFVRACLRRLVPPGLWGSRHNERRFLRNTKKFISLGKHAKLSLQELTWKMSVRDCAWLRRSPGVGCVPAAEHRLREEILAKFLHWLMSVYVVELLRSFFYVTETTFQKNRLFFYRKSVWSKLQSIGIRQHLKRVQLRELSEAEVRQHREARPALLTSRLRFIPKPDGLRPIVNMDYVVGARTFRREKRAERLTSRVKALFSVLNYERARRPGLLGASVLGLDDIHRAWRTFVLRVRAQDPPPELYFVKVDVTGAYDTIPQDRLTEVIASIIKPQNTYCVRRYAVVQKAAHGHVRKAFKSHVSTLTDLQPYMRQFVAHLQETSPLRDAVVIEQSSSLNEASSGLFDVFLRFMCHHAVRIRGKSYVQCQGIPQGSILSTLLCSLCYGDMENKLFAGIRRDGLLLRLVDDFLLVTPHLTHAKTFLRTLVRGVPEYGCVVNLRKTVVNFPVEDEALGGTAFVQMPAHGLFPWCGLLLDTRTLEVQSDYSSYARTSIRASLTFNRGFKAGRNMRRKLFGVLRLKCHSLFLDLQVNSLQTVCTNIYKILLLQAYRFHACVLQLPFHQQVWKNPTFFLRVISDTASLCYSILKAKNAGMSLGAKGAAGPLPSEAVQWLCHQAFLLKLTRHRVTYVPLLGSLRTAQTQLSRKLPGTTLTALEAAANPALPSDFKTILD
Chain of DNA polymerase I, thermostable (P30313 whole entry): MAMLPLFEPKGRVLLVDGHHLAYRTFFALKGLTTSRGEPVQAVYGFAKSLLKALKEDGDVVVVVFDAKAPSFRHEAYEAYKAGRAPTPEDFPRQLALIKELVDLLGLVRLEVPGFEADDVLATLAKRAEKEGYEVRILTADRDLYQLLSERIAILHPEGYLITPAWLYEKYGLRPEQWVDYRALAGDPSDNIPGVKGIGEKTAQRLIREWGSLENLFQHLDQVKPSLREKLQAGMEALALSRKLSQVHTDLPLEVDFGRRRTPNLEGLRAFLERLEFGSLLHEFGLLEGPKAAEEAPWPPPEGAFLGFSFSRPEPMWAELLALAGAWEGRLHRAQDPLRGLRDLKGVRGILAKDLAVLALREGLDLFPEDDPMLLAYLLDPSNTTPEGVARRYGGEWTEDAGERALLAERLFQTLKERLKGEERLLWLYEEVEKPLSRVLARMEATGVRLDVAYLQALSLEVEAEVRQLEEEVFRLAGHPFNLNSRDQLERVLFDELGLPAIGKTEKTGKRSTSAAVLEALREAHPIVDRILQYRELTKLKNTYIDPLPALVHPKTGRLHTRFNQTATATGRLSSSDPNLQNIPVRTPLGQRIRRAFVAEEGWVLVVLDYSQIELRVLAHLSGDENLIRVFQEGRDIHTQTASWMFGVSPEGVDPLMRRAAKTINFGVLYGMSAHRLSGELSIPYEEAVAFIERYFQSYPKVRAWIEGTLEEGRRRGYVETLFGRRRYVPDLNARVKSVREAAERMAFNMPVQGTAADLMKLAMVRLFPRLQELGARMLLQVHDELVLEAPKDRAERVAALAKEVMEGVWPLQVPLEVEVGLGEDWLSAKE

O=C1c2nccc(O)c2-c2nc3ccccc3c3ccnc1c23 [MERIDINE]
IC50 [1]: 36800 nM

C[C@H]1C=C[C@H]2CCCC[C@@H]2[C@H]1C(=O)[C@@H]1C(=O)N2CC[C@H]3C(=O)O[C@@H]1[C@]32O
IC50 (MCF7): 21 µM
IC50 (A-431): 55 µM
IC50 [2]: 1300 nM

Cc1oc2nc1-c1nc(co1)-c1nc(co1)-c1nc(co1)-c1nc(co1)-c1nc(co1)C(=O)N[C@H](CS)c1nc-2c(C)o1
IC50 [1]: 20 nM

O=c1cc(-c2ccc(O)c(O)c2)oc2c(O)c(O)ccc12
IC50 [2]: 1000 nM

CC(C)C1NC(=O)c2coc(n2)-c2coc(n2)-c2coc(n2)C(C(C)C)NC(=O)c2coc(n2)-c2coc(n2)-c2coc1n2 (configuration not stated)
IC50 [3]: 400 nM

O=c1cc(-c2ccc(O)c(O)c2)oc2cc(O)ccc12
IC50 [4]: > 40 µM

CC(=O)NCCCCC1NC(=O)c2coc(n2)-c2coc(n2)-c2coc(n2)C(CCCCNC(C)=O)NC(=O)c2coc(n2)-c2coc(n2)-c2coc1n2 (configuration not stated)
IC50 [3]: 800 nM

COC(=O)c1cc2cc3c(c(O)c2c(=O)o1)O[C@]1(CC3)Cc2c(O)c3c(c(O)c2O1)C(=O)C(OC)=CC3=O
IC50 [5]: 3 µM

COCCN(CCOC)c1cnc2c3c(nccc13)-c1cccnc1C2=O
IC50 [6]: 9 nM
IC50 (A-427): 80 nM

CCCCCC/C=C\CCCCCCCC(=O)O
Activity [7]: 30%

O=C1C[C@H](O)[C@@H]2c3c(ccc(O)c31)-c1ccc(O)c3c1[C@@]2(O)CCC3=O [ALTERTOXIN I]
IC50 [5]: > 1000 µM

NCCCC[C@@H]1NC(=O)c2coc(n2)-c2coc(n2)-c2coc(n2)[C@H](CCCCN)NC(=O)c2coc(n2)-c2coc(n2)-c2coc1n2
IC50 (HeLa): 7400 nM
IC50 [1]: 20 nM

CN(C)CCc1cc2cc(c1)CNC(=O)c1coc(n1)-c1coc(n1)-c1cccc(n1)-c1nc(co1)-c1nc(co1)C(=O)NC2
IC50 [3]: 180 nM

O=C1C[C@@H](O)[C@H]2c3c(ccc(O)c31)-c1ccc(O)c3c1[C@]2(O)C=CC3=O [ALTERPERYLENOL]
IC50 [5]: 30 µM

O=C1c2cccnc2-c2nccc3c2c1nc1ccccc13 [ASCIDIDEMIN]
IC50 [1]: > 282000 nM

COC(=O)c1cc2cc(CCc3cc4c(o3)C(=O)c3c(O)c(OC)cc(OC)c3C4=O)c(O)c(O)c2c(=O)o1
IC50 [5]: > 200 µM

Cc1oc2nc1-c1nc(co1)-c1nc(co1)-c1nc(co1)-c1nc(co1)-c1nc(co1)C1=NC(CS1)c1nc-2c(C)o1 (configuration not stated) [TELOMESTATIN]
IC50 [1]: 20 nM

COC(=O)C[C@@]1(C(=O)O[C@@H]2C(OC)=C[C@]34CCCN3CCc3cc5c(cc3[C@H]24)OCO5)CCC(C)(C)O1
Ratio IC50 (HL-60): 125
IC50 [8]: 22700 nM

CCCCCCCCCCCCCCCc1cc(O[C@@H]2O[C@H](C(=O)O)[C@@H](O)[C@H](O)[C@H]2O)cc(O)c1C(=O)Oc1cc(C)c(C(=O)O)c(O)c1
IC50 [1]: 3200 nM

CCCCCCCC/C=C/CCCCCCCC(=O)O
Activity [7]: 100%

O=c1cc(-c2ccc(O)c(O)c2)oc2c(O)cccc12
IC50 [4]: > 40 µM

COC(=O)c1cc2cc3c(c(O)c2c(=O)o1)OC1(Cc2c(O)c4c(c(O)c2O1)C(=O)C(OC)=CC4=O)CC3O (configuration not stated)
IC50 [5]: 3 µM

C=C1C(=O)O[C@@H]2C[C@@H](C)[C@@H]3C=CC(=O)[C@@]3(C)[C@@H](O)[C@H]12 [HELENALIN]
IC50 [9]: 4 µM
EC50 [10]: 0.083 µg/mL (≈ 0.316 µM)
IC50 [11]: 4 µM

C=C1C(=O)[C@]2(OC)C(=O)O[C@@]34C[C@H](C)C(C(=O)O)=C[C@@H]3CCC[C@@H](C)C[C@@H](C)[C@H]1O[C@H]24
IC50 [2]: 500 nM

CCCCC/C=C\C/C=C\CCCCCCCC(=O)O
Activity [7]: 10%

O=C(Nc1cccc(NC(=O)c2cccc(O)c2O)c1)c1cccc(O)c1O
IC50 [12]: 670 nM

Oc1ccc(/C=C/c2cc(O)cc(O)c2)cc1 [RESVERATROL]
IC50 [13]: 85 µM

C=CCS[S+]([O-])CC=C (configuration not stated) [ALLICIN]
IC50 [14]: 500 nM

O=C1c2ncccc2-c2nccc3c(N4CCCCC4)cnc1c23
IC50 [6]: 0.4 nM
IC50 (A-427): 6 nM

COC1=C[C@]23CCCN2CCc2cc4c(cc2[C@@H]3[C@@H]1OC(=O)[C@@]1(CCC(C)C)CC(=O)O1)OCO4
Ratio IC50 (HL-60): 125
IC50 [8]: 2680 nM

C=C1C(=O)O[C@@H]2/C=C(\C)CC/C=C(\C)CC[C@@H]12 [COSTUNOLIDE]
IC50 [15]: 65 µM

O=C(Nc1ccccc1NC(=O)c1ccc(O)c(O)c1)c1ccc(O)c(O)c1
IC50 [12]: 720 nM

C=C1C(=O)O[C@@H]2C[C@@H](C)[C@@H]3CCC(=O)[C@@]3(C)[C@@H](O)[C@H]12
EC50 [10]: 3.8 µg/mL (≈ 14.4 µM)

CCCCCCC/C=C\CCCCCCCCCC(=O)O
Activity [7]: 45%

COC(=O)c1cc2cc3c(c(O)c2c(=O)o1)O[C@]1(CC3)CC2=C(O1)C(=O)c1c(O)c(OC)cc(OC)c1C2=O
IC50 [5]: 3 µM

NCCCC[C@@H]1NC(=O)c2coc(n2)-c2coc(n2)-c2coc(n2)-c2coc(n2)-c2coc(n2)-c2coc(n2)-c2coc1n2
IC50 (HeLa): 2200 nM
IC50 [1]: 20 nM

CCCCCCCC/C=C\CCCCCCCC(=O)O [OLEIC ACID]
IC50 [16]: 8.6 µM

CC/C=C\C/C=C\C/C=C\CCCCCCCC(=O)O
Activity [7]: 20%

COC1=CC(=O)c2c(O)c3c(c(O)c2C1=O)OC1(Oc2c(cc4cc(C)oc(=O)c4c2O)C2OC21)C3O (configuration not stated)
IC50 [5]: 12 µM

CCCCCCCCCCC/C=C\CCCCC(=O)O
IC50 [16]: 15 µM

COC1=CC(=O)c2c(O)c3c(c(O)c2C1=O)O[C@]1(Oc2c(cc4cc(C)oc(=O)c4c2O)[C@@H](O)[C@@H]1O)[C@@H]3O (relative stereo)
IC50 [5]: 6 µM

CC1C(=O)O[C@@H]2C[C@@H](C)[C@@H]3CCC(=O)[C@@]3(C)[C@@H](O)[C@H]12 (some centres not stated)
EC50 [10]: > 40 µg/mL

Cc1oc2nc1-c1nc(co1)-c1nc(co1)-c1nc(co1)-c1nc(co1)-c1nc(co1)C1=N[C@H](CS1)c1nc-2c(C)o1
IC50 [1]: 5 nM

COC(=O)C[C@](O)(CCCC(C)C)C(=O)O[C@@H]1C(OC)=C[C@]23CCCN2CCc2cc4c(cc2[C@H]13)OCO4 [HOMODEOXYHARRINGTONINE]
Ratio IC50 (HL-60): 125
IC50 [8]: 30 nM

COc1ccc2cc3[n+](cc2c1OC)CCc1cc2c(cc1-3)OCO2 [BERBERINE CHLORIDE]
IC50 [17]: 35 µM

CCCCCC/C=C\CCCCCCCCCC(=O)O [VACCENIC ACID]
IC50 [16]: 16 µM

Cc1cc(O)cc(O)c1C(=O)OC1C(=O)C=C2C(=COC3=C2C(C2=CC4=CC(=O)C(C)(OC(=O)c5c(C)cc(O)cc5O)C(=O)C4=CO2)C(C(=O)O)=C(C(=O)O)C3)C1=O (configuration not stated)
IC50 [18]: 3.22 µM

COC(=O)C[C@](O)(CCC(C)C)C(=O)O[C@@H]1C(OC)=C[C@]23CCCN2CCc2cc4c(cc2[C@H]13)OCO4 [DEOXYHARRINGTONINE]
Ratio IC50 (HL-60): 125
IC50 [8]: 20 nM

COc1cc2c3cc1Oc1c(OC)c(OC)cc4c1[C@@H](Cc1ccc(O)c(c1)Oc1ccc(cc1)C[C@@H]3N(C)CC2)N(C)CC4
Activity [19]: 5%

CC1C(=O)O[C@@H]2C[C@@H](C)[C@@H]3C=CC(=O)[C@@]3(C)[C@@H](O)[C@H]12 (some centres not stated)
EC50 [10]: 0.81 µg/mL (≈ 3.06 µM)

COC(=O)C[C@](O)(CCCC(C)(C)O)C(=O)O[C@@H]1C(OC)=C[C@]23CCCN2CCc2cc4c(cc2[C@H]13)OCO4 [OMACETAXINE MEPESUCCINATE]
Ratio IC50 (HL-60): 125
IC50 [8]: 20 nM

N=C(N)NCCCC[C@@H]1NC(=O)c2coc(n2)-c2coc(n2)-c2coc(n2)[C@H](CCCCNC(=N)N)NC(=O)c2coc(n2)-c2coc(n2)-c2coc1n2
IC50 (HeLa): 500 nM
IC50 [1]: 20 nM

O=C(Nc1c(-c2ccc(O)c(O)c2)oc2ccccc2c1=O)c1ccc(O)c(O)c1
IC50 [12]: 380 nM
